According to patent publication EP4722213A1, “NITROGEN-CONTAINING FUNCTIONAL GROUP-SUBSTITUTED PYRIDAZINOPYRIDONE DERIVATIVE AND USE THEREOF” (Sichuan Huiyu Pharmaceutical Co., Ltd., priority 2023, dated 2024):
Where a name gives a salt, the structure may show the parent alone.

Target: T1, SOS1 (Homo sapiens, UniProt Q07889)
T1 sequence (Q07889 1-1333): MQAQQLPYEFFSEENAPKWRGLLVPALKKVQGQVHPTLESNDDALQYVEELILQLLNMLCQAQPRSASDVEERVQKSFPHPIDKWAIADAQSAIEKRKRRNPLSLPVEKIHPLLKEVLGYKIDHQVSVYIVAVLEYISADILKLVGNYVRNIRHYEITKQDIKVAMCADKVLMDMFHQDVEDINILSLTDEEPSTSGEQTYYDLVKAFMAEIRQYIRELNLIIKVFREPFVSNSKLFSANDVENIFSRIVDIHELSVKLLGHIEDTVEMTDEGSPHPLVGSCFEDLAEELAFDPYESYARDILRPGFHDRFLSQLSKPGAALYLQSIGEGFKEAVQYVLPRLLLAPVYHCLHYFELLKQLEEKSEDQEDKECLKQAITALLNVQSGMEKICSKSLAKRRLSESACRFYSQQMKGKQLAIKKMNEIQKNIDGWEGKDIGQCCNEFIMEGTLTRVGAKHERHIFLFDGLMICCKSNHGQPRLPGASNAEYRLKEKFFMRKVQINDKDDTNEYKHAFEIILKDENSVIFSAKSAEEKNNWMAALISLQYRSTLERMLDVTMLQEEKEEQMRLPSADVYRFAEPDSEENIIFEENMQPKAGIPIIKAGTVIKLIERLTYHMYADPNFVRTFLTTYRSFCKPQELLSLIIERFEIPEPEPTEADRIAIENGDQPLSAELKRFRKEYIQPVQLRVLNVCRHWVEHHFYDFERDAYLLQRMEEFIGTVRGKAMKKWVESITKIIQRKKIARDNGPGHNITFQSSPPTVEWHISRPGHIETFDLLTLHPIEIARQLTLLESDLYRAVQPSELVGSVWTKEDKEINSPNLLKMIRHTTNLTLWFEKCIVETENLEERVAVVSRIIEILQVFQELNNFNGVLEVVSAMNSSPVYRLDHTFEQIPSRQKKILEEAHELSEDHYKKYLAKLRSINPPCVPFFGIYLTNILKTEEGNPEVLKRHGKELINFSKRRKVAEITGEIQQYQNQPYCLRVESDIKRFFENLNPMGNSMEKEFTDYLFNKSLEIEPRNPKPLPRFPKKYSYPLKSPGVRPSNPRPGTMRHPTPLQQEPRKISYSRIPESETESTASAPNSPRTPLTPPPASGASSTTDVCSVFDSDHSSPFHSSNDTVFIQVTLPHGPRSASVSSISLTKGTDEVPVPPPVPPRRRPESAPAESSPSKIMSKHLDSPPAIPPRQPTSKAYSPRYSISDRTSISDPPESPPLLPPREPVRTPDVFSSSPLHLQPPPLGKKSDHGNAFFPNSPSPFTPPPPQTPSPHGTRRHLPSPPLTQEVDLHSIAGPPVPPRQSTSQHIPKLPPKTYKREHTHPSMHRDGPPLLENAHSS
Assay: biochemical

Compound | IC50 [nM]
Cc1c([C@@H](C)Nc2nnc(N3CCN(C4CCC4)CC3)c3cc(=O)n(C4(C)CC4)cc23)cccc1C(F)(F)F [Example 94, (R)-1-(4-cyclobutylpiperazin-1-yl)-4-((1-(2-methyl-3-(trifluoromethyl)phenyl)ethyl)amino)-6-(1-methylcyclopropyl) pyrido[3,4-d]pyridazin-7(6H)-one] | 7.3
Cc1c(C#N)cccc1[C@@H](C)Nc1nnc(N2CCN(CC3CC3)CC2)c2cc(=O)n(C3CC3)cc12 [Example 102, (R)-3-(1-((6-cyclopropyl-1-(4-(cyclopropylmethyl)piperazin-1-yl)-7-oxo-6,7-dihydropyrido[3,4-d]pyridazin-4-yl)amino)ethyl)-2-methylbenzonitrile] | 12.5
Cc1c(C#N)cccc1[C@@H](C)Nc1nnc(N2CCCC2)c2cc(=O)n(C3CC3)cc12 [Example 37, (R)-3-(1-((6-cyclopropyl-7-oxo-1-(pyrrolidin-1-yl)-6,7-dihydropyrido[3,4-d]pyridazin-4-yl)amino)ethyl)-2-methylbenzonitrile] | 9.2
C[C@@H](Nc1nnc(N2CC[C@@H](CO)C2)c2cc(=O)n(C3(C)CC3)cc12)c1cccc(C(F)(F)F)c1 [Example 178, 1-((R)-3-(hydroxymethyl)pyrrolidin-1-yl)-6-(1-methylcyclopropyl)-4-(((R)-1-(3-(trifluoromethyl)phenyl)ethyl)amino)pyr ido[3,4-d]pyridazin-7(6H)-one formate] | 6.3
Cc1c([C@@H](C)Nc2nnc(N3CCC(F)(F)CC3)c3cc(=O)n(C4CC4)cc23)cccc1C(F)(F)F [Example 58, (R)-6-cyclopropyl-1-(4,4-difluoropiperidin-1-yl)-4-((1-(2-methyl-3-(trifluoromethyl)phenyl)ethyl)amino)pyr ido[3,4-d]pyridazin-7(6H)-one] | 100
C[C@@H](Nc1nnc(-n2ccnc2)c2cc(=O)n(C3(C)CC3)cc12)c1cccc(C(F)F)c1F [Example 34, (R)-4-((1-(3-(difluoromethyl)-2-fluorophenyl)ethyl)amino)-1-(1H-imidazol-1-yl)-6-(1-methylcyclopropyl) pyrido[3,4-d]pyridazin-7(6H)-one] | 14.4
CCN1CCN(c2nnc(N[C@H](C)c3cc(N)cc(C)c3F)c3cn(C4CC4)c(=O)cc23)CC1 [Example 144, (R)-4-((1-(5-amino-2-fluoro-3-methylphenyl)ethyl)amino)-6-cyclopropyl-1-(4-ethylpiperazin-1-yl)pyrido[3,4-d]pyridazin-7(6H)-one formate] | 6.7
Cc1c([C@@H](C)Nc2nnc(N3CCN(C(C)(C)C)CC3)c3cc(=O)n(C4(C)CC4)cc23)cccc1C(F)(F)F [Example 95, (R)-1-(4-(tert-butyl)piperazin-1-yl)-4-((1-(2-methyl-3-(trifluoromethyl)phenyl)ethyl)amino)-6-(1-methylcyclopropyl) pyrido[3,4-d]pyridazin-7(6H)-one] | 6.8
C[C@@H](Nc1nnc(N2CCC3(CC2)CNC(=O)C3)c2cc(=O)n(C3(C)CC3)cc12)c1cccc(C(F)F)c1F [Example 204, (R)-4-((1-(3-(difluoromethyl)-2-fluorophenyl)ethyl)amino)-6-(1-methylcyclopropyl)-1-(3-oxo-2,8-diazaspiro[4.5]decan-8-yl)pyrido[3,4-d]pyridazin-7(6H)-one] | 8
C[C@@H](Nc1nnc(N2CC[C@@H](O)C2)c2cc(=O)n(C3(C)CC3)cc12)c1cccc(C(F)F)c1F [Example 137, 4-(((R)-1-(3-(difluoromethyl)-2-fluorophenyl)ethyl)amino)-1-((R)-3-hydroxypyrrolidin-1-yl)-6-(1-methylcyclopropyl) pyrido[3,4-d]pyridazin-7(6H)-one formate] | 4.8
C[C@@H](Nc1nnc(N2CCN(C)CC2)c2cc(=O)n(C)cc12)c1cccc(C(F)F)c1F [Example 138, (R)-4-((1-(3-(difluoromethyl)-2-fluorophenyl)ethyl)amino)-6-methyl-1-(4-methylpiperazin-1-yl)pyrido[3,4-d]pyridazin-7(6H)-one formate] | 10.7
Cc1c(C#N)cccc1[C@@H](C)Nc1nnc(N2CCC2)c2cc(=O)n(C3CC3)cc12 [Example 36, (R)-3-(1-((1-(azetidin-1-yl)-6-cyclopropyl-7-oxo-6,7-dihydropyrido[3,4-d]pyridazin-4-yl)amino)ethyl)-2-methylbenzonitrile] | 10.7
C[C@@H](Nc1nnc(N2CC3CCCC3C2)c2cc(=O)n(C3(C)CC3)cc12)c1cccc(C(F)F)c1F (stereo partly drawn) [Example 188, 4-(((R)-1-(3-(difluoromethyl)-2-fluorophenyl)ethyl)amino)-1-(hexahydrocyclopenta[c]pyrrol-2(1H)-yl)-6-(1-methylcyclopropyl) pyrido[3,4-d]pyridazin-7(6H)-one] | 3.1
C[C@@H](Nc1nnc(N2CCN(C)CC2)c2cc(=O)n(C3CCOC3)cc12)c1cccc(C(F)F)c1F (stereo partly drawn) [Example 127, 4-(((R)-1-(3-(difluoromethyl)-2-fluorophenyl)ethyl)amino)-1-(4-methylpiperazin-1-yl)-6-(tetrahydrofuran-3-yl)pyrido[3,4-d]pyridazin-7(6H)-one] | 6.7
Cc1c(C#N)cccc1[C@@H](C)Nc1nnc(N2CCN(C)[C@H](C)C2)c2cc(=O)n(N3CC4CCCC4C3)cc12 (stereo partly drawn) [Example 167, 3-((1R)-1-((1-((R)-3,4-dimethylpiperazin-1-yl)-6-(hexahydrocyclopenta[c]pyrrol-2(1H)-yl)-7-oxo-6,7-dihydropyrido[3,4-d]pyridazin-4-yl)amino)ethyl)-2-methylbenzonitrile] | 6.3
C[C@@H](Nc1nnc(N2CC3CC2CO3)c2cc(=O)n(C3(C)CC3)cc12)c1cccc(C(F)(F)F)c1F (stereo partly drawn) [Example 175, 1-(2-oxa-5-azabicyclo[2.2.1]heptan-5-yl)-4-(((R)-1-(2-fluoro-3-(trifluoromethyl)phenyl)ethyl)amino)-6-(1-methylcyclopropyl) pyrido[3,4-d]pyridazin-7(6H)-one] | 13
C[C@@H](Nc1nnc(N(C)C)c2cc(=O)n(C3(C)CC3)cc12)c1cccc(C(F)F)c1F [Example 8, (R)-4-((1-(3-(difluoromethyl)-2-fluorophenyl)ethyl)amino)-1-(dimethylamino)-6-(1-methylcyclopropyl) pyrido[3,4-d]pyridazin-7(6H)-one] | 7.7
C[C@@H](Nc1nnc(N2CCS(=O)(=O)CC2)c2cc(=O)n(C3(C)CC3)cc12)c1cccc(C(F)F)c1F [Example 27, (R)-4-((1-(3-(difluoromethyl)-2-fluorophenyl)ethyl)amino)-1-(1,1-dioxidothiomorpholino)-6-(1-methylcyclopropyl) pyrido[3,4-d]pyridazin-7(6H)-one] | 16.5
C[C@@H](Nc1nnc(N2CCCC2)c2cc(=O)n(C3CC3)cc12)c1cccc(C(F)F)c1F [Example 4, (R)-6-cyclopropyl-4-((1-(3-(difluoromethyl)-2-fluorophenyl)ethyl)amino)-1-(pyrrolidin-1-yl) pyrido[3,4-d]pyridazin-7(6H)-one] | 4.9
C[C@@H](Nc1nnc(N2CCC3(CCN(C)C3)C2)c2cc(=O)n(C3(C)CC3)cc12)c1cccc(C(F)F)c1F (stereo partly drawn) [Example 183, 4-(((R)-1-(3-(difluoromethyl)-2-fluorophenyl)ethyl)amino)-1-(7-methyl-2,7-diazaspiro[4.4]nonan-2-yl)-6-(1-methylcyclopropyl) pyrido[3,4-d]pyridazin-7(6H)-one] | 4.9
C[C@@H](Nc1nnc(N2CCN(C3CCCC3)CC2)c2cc(=O)n(C3CC(F)(F)C3)cc12)c1cccc(C(F)F)c1F [Example 106, (R)-6-(3,3-difluorocyclobutyl)-4-((1-(3-(difluoromethyl)-2-fluorophenyl)ethyl)amino)-1-(4-cyclopentylpiperazin-1-yl)pyrido[3,4-d]pyridazin-7(6H)-one] | 5.2
Cc1cc(N)cc([C@@H](C)Nc2nnc(N3CCN(C4CCCC4)CC3)c3cc(=O)n(C4CC4)cc23)c1F [Example 148, (R)-4-((1-(5-amino-2-fluoro-3-methylphenyl)ethyl)amino)-1-(4-cyclopentylpiperazin-1-yl)-6-cyclopropylpyrido[3 ,4-d]pyridazin-7(6H)-one] | 6.5
